Where a SMILES comes first, the peptide text is derived from it. [ ]: non-standard residue; d: D form.
Target: T1, IL-1R (Rattus norvegicus, UniProt Q02955)
T1 construct: Thymocytes freshly isolated from rat thymus; endogenous in cells; host or cells: freshly isolated rat thymocytes
T1 sequence (Q02955 20-576): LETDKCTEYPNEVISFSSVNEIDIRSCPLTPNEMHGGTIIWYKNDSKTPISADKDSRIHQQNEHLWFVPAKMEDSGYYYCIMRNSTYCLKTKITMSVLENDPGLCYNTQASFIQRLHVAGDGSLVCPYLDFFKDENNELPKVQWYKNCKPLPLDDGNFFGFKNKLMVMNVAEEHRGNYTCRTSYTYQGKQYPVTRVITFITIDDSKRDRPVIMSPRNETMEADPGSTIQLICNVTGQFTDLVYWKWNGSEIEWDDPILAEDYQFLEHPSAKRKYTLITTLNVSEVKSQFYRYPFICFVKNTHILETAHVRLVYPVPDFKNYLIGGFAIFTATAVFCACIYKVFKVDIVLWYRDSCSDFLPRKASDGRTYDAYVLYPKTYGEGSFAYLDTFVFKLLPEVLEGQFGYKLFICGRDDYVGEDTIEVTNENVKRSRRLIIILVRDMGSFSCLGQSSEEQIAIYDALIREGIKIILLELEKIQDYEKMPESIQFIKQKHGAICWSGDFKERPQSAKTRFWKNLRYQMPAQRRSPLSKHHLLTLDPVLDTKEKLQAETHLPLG
T1 sequence (Q63621 21-570 partner): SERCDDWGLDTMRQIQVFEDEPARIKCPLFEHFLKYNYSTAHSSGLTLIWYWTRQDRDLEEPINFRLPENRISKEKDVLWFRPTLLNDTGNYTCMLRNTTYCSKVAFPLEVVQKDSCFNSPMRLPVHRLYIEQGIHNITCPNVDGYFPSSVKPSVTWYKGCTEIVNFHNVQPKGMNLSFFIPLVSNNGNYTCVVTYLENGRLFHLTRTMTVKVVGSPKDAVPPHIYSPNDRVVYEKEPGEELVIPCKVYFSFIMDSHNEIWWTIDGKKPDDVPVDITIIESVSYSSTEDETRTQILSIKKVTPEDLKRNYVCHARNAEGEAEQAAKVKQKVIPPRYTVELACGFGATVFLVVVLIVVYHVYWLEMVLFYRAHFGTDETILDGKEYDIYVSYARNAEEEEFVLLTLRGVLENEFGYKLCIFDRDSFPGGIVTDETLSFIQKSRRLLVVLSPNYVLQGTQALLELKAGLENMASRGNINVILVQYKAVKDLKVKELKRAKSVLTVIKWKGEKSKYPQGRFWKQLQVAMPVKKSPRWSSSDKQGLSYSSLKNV
Experiment: Cross-linking and radioligand binding of I125-API-101.10 on thymocytes
Text: Thymocytes freshly isolated from rat thymus were resuspended at a concentration of 10^7 cell/ml in PBS (phosphate buffered saline) buffer pH 8.0 (reaction buffer) and washed three times with ice-cold reaction buffer. The reaction mixture for each sample contained: 10^6 cells and 10^7 cpm of 125API-101.10. One sample also contained […] of cold API-101.10 peptide. In the negative control HEK-293 cells containing a negligible amount of IL-1R were used. Each sample volume was then raised to 250 μl with reaction buffer. Samples were incubated at room temperature and/or 37° for 45 minutes to allow peptide binding. The non-permeable cross-linker BS3 (Bis(sulfosuccinimidyl)suberate) was then added to a final concentration of 2.5 mM and samples were incubated at 4° C. for 30 minutes to minimize active internalization of BS3 (11.4 Å) (Pierce) (Partis, J. Prot. Chem. 293:263-277, 1983; Cox et al., J. Immunol. 145:1719-1726, 1990; and Knoller et al., J. Biol. Chem. 266:2795-2804, 1991). The reaction was quenched with 20 mM TRIS pH 7.5 for 15 minutes at room temperature. Cells were centrifuged at 4000 rpm for 10 minutes, lysed for 30 minutes on ice with 150 μl of RIPA buffer (50 mM Tris HCl pH7.4; 150 mM NaCl; 1 mM EDTA; 2 mM Na3VO4; 1 mM NaF; 1% NP-40; 0.25% Nadeoxycholate). […] Radioactivity was determined is every cell lysate with a Packard CobraII autogamma counter.

displacement of radioactive IL-1α (I125-IL-1α 100 pM, 101.10 500 nM): unable to displace
displacement of 125I-API-101.10 by non-radioactive peptide (cross-linking, autoradiogram): displace almost all
SMILES: CC(C)C[C@@H](NC(=O)[C@@H](CCC(=O)O)NC(=O)[C@H](NC(=O)[C@H](NC(=O)[C@@H](Cc1ccc(O)cc1)NC(=O)[C@H](N)CCCNC(=N)N)[C@H](C)O)C(C)C)C(=O)N[C@H](C)C(N)=O [API-101.10, RYTVELA] (H-[dR][dY][dT][dV][dE][dL][dA]-NH2; N-terminus and C-terminus assumed)

Reference: patent US20110144014A1, “CYTOKINE RECEPTOR MODULATORS AND USES THEREOF” (CENTRE HOSPITALIER UNIVERSITAIRE SAINTE-JUSTINE, priority 2005, published 2011)
